Laboratory results from patent US9089572B2, “Inhibitors of p97” (California Institute of Technology, priority 2008, dated 2015).

Legend:
Format in all cases: cell-based
[1] = system: 293; experiment: MTT cell growth assay, 293; settings: Homo sapiens, HEK293, 48 or 72 h, read-out: Cell line inhibition of growth GI50 293
Description: (§1) To probe further the effect of compound 2 and related compounds 1, 3, 5, 6 and 7, various concentrations of these compounds were added to 13 different cell lines and incubated for 48 or 72 h. An MTT assay was then performed to evaluate cell growth and survival.

[2] = system: PC3; experiment: MTT cell growth assay, PC3; settings: Homo sapiens, PC-3, 48 or 72 h, read-out: Cell line inhibition of growth GI50 PC3
Description: as §1

[3] = system: MRC5-WT; experiment: CellTiter-Glo growth inhibition, parental MRC5 cells; settings: Homo sapiens, 48 h at 37° C., read-out: Cell line inhibition of growth GI50 MRC5-WT

Question: Which results are given for `C=CC(=O)Nc1ncnc2c1c(-c1ccccc1)nn2C(C)(C)C` [Compound 2]?
Answer: GI50 [1]: 5.1 ± 2.3 µM; GI50 [2]: 2.2 ± 1.1 µM; GI50 [3]: 17 ± 10 µM
